These are literature values, as cited in US8476227B2, “Methods of activating a melanocortin-4 receptor pathway in obese subjects” (Ethicon Endo-Surgery, Inc., priority 2010, dated 2013).

For this series the following is noted: rat models; background statement, no dose or regimen given.

NDP-MSH: the body weight gain result is “attenuate” and the food intake result is reported as “attenuate”.
